Experimental data published in patent US20080275134A1, “Methods for Treatment of Retinal Degenerative Disease” (University of Washington, priority 2005, published 2008).

Tests used:
CYP26A1 = target: T1, CYP26A1 (Homo sapiens, UniProt O43174); assay: oxidation in HEK-293 cells transfected with CYP26A1 cDNA; format: in vitro ADME
T1 construct: expressed in transfected cells; host or cells: HEK-293
T1 sequence (O43174 1-497): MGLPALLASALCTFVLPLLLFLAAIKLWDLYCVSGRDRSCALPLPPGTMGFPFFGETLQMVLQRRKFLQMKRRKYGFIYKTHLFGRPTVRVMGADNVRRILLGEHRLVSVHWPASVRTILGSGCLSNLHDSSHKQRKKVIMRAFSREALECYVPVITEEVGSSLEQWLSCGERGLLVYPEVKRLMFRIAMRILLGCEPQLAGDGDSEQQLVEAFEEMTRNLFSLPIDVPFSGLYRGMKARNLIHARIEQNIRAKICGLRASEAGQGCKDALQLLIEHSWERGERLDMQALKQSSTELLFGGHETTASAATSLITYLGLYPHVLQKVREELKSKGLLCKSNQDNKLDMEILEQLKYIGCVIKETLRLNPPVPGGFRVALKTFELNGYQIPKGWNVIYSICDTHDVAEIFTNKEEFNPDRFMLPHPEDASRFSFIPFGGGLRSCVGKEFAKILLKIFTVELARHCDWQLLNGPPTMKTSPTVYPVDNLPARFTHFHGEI
Text: Next, the RA oxidation pathway was investigated. […] In addition to secretion, Ret-NH2 might be degraded first by deamination to all-trans-retinol/retinal, which was seen to increase in Ret-NH2 treated cells. […] These observations explain the long-lasting effect of RetNH2, as the amide is stored and hydrolyzed back to the free amine.

11-cis-RDH = conditions: cited from earlier work
[1] = system: regeneration of vision chromophore (11-cis-retinal); assay: regeneration of 11-cis-retinal in mouse eyes after gavage and light bleach, HPLC retinoid analysis; format: in vivo; conditions: 50 mg/kg, tested in parallel with Ret-NH2
Description: Mice were gavaged with all-trains-Ret-NH2, exposed to intense light for 20 min, and then allowed to recover in the dark for 5 hours. The total amount of different forms of retinoids in all experiments was unchanged. […] For this experiment mice were treated with both 9-cis-retinol and all-trans-Ret-NH2, and bleached after 24 hours, and were allowed to recover for 5 hours in the dark. The presence of 9-cis-retinal was confirmed in treated animals (see peaks 4 and 4′ in FIG. 4A bottom panel, corresponding to syn- and anti-9-cis-retinal oximes, respectively). 11-cis-Retinal was not reduced and/or esterified after treatment with Ret-NH2. […] This supports the idea that Ret-NH2 is a specific inhibitor of the isomerization reaction.
A. Chromatographic separation of nonpolar retinoids from WT mouse eyes. Mice were gavaged with all-trans-Ret-NH2 24 hours prior to bleaching for 20 min at 150 cd·m^−2 W in the Ganzfeld chamber. Regeneration of 11-cis-retinal was allowed for 24 hours in the dark, and retinoids were extracted from the eye and separated by normal phase HPLC as described in Materials and Methods. The peaks were identified based on elution time and absorption spectra correspond to the following retinoids: 1, all-trans-retinyl esters; 2,2′, syn- and anti-11-cis-retinal oximes; 3, syn-all-trans-retinal oxime; 4,4′, syn- and anti-9-cis-retinal oximes; 5, all-trans-retinol. B. Changes of 11-cis-retinal oxime levels at increasing doses of all-trans-Ret-NH2 during 5 hours or 24 hours of dark adaptation. Square indicates the level of 11-cis-retinal oximes that was present in mice gavaged with vegetable oil without retinoids just after bleaching, and arrow indicates the increase of visual chromophore during 5 hours of dark adaptation. Triangles correspond to the level of 11-cis-retinal found in the mice gavaged with 50 mg/kg of 13-cis-RA. C and D. Single flash ERG responses of increasing intensity for all-trans-Ret-NH2 treated mice and control mice. Serial responses to increasing flash stimuli were obtained for all-trans-Ret-NH2 treated and control mice for selected intensities (C) and plotted as a function of a-wave and b-wave versus varying light intensities under dark-adapted conditions (D) before bleach and at 5 hours and 24 hours after bleach. The dark-adapted mice were bleached with intense constant illumination (150 cd·m^−2) for 20 min. […] SE bars are shown.
Chromatographic separation of nonpolar retinoids from WT mouse eyes. Mice were gavaged with 100 mg/kg of all-trans-Ret-NH2 24 hours prior to bleaching. Mice were next exposed to 500 cd m^−2 for 48 min bleaching in the Ganzfeld chamber. Regeneration of 11-cis-retinal was allowed for 24 hours in the dark, and retinoids were extracted from the eye and separated by normal phase HPLC as described in Materials and Methods. The peaks identified based on elution time and absorption spectra correspond to the following retinoids: 1, all-trans-retinyl esters; 2,2′, syn- and anti-1-cis-retinal oximes; 3,3′ syn- and anti-all-trans-retinal oximes; 4, all-trans-retinol.
Mice were gavaged with the solution of inhibitor in vegetable oil (control—non-treated, RPN—retinylpalmitamide, RAN—retinylacetamide, Ret—NH2-all-trans-retinylamine), kept in dark for 16 hours, then light stimulated and kept in dark for additional 5 hours before their eyes were analyzed.
Mouse retinoid extraction and analysis—Retinoid analysis was performed under dim red light as described previously (Maeda et al., J. Neurochem 85:944-956, 2003; Van Hooser et al., J Biol Chem 277:19173-82, 2002). Mice were gavaged with retinoids as described previously (Van Hooser et al., J Biol Chem 277:19173-82, 2002).

A2E formation = conditions: in vivo; cited from earlier work
RAR = assay: F9-RARE-lacZ reporter cell line, β-galactosidase activity (DR5 elements); format: cell-based; conditions: 24 hours treatment, micromolar concentrations
Text: 13-cis-RA can isomerize to all-trans-RA and then to 9-cis-RA, both of which are potent ligands of the RA receptor (RAR). 9-cis-RA also binds and activates the retinoid X receptor (RXR). This contributes to the toxicity of the RAR and RXR ligands. It was investigated whether Ret-NH2 can activate these nuclear receptor using reporter-cells as described previously (20). A β-galactosidase activity assay was employed to examine if all-trans-RA, 9-cis-RA, and Ret-NH2 are agonists for these nuclear receptors.
F9-RARE-lacZ cells express endogenous RAR and RXR and were transfected with a construct of lacZ under the control of a minimal promoter and upstream DR5 elements (1). F9-RARE-lacZ cells were treated with different doses of all-trans-RA or Ret-NH2 for 24 hours after which the cells were harvested and the β-galactosidase activity was measured using the soluble substrate o-nitrophenyl β-D-galactopyranoside. The colorless substrate was cleaved by β-galactosidase to yellow colored o-nitrophenol, whose absorbance was measured at 420 nm using a spectrophotometer. The experiment was repeated twice with similar results. The RARE reporter cell line F9-RARE-lacZ (SIL15-RA) was a kind gift from Dr. Michael Wagner (SUNY Downstate Medical Center) and Dr. Peter McCaffery (University of Massachusetts Medical School). […]

CC1=C(/C=C/C(C)=C/C=C/C(C)=C/C(=O)O)C(C)(C)CCC1 [retinoic acid, reference compound]
oxidation by CYP26A1 (CYP26A1): readily oxidized

CC1=C(/C=C/C(C)=C/C=C/C(C)=C\C(=O)O)C(C)(C)CCC1 [13-cis-RA, 13-cis-retinoic acid]
inhibition of 11-cis-RDH (11-cis-RDH): inhibits 11-cis-RDH
effect on chromophore recovery at 50 mg/kg [1]: ineffective
formation of A2E (A2E formation): blocked the formation of A2E

CC1=C(/C=C/C(C)=C/C=C/C(C)=C/C(=O)O)C(C)(C)CCC1 [all-trans-RA, All-trans-retinoic acid, reference compound]
activation of transcription through RAR (DR5 RARE) (RAR): activated transcription
